Assay results from ChEMBL document CHEMBL3217459, “3-Diarylethyne quinazolinones: a new class of senescence inducers” (Medchemcomm, 2013).
Active and inactive are the calls of the source. No cut-off for these calls is given here.

Assays:
MCF7 [1] = assay: Cell cycle arrest in human MCF7 cells assessed as accumulation at S phase at 4 uM after 24 hrs using propidium iodide staining by FACS analysis (reference value: 11%); format: functional
MCF7 [2] = assay: Cell cycle arrest in human MCF7 cells assessed as accumulation at G2/M phase at 4 uM after 24 hrs using propidium iodide staining by FACS analysis (reference value: 19%); format: functional
MCF7 [3] = assay: Cytotoxicity against human MCF7 cells assessed as cell viability at 4 uM after 48 hrs by MTT assay; format: functional
MCF7 [4] = assay: Cell cycle arrest in human MCF7 cells assessed as accumulation at G1 phase at 4 uM after 24 hrs using propidium iodide staining by FACS analysis (reference value: 70%); format: functional
MCF7 [5] = assay: Cytotoxicity against human MCF7 cells assessed as cell viability at 2 uM after 48 hrs by MTT assay; format: functional
MCF7 [6] = assay: Induction of DNA damage in human MCF7 cells assessed as decrease in TRF2 level measured at 4 uM after 24 hrs by Western blot analysis; format: functional, cell-based
MCF7 (Homo sapiens) = assay: Induction of senescence in human MCF7 cells assessed as increase in p16 expression at 4 uM after 24 hrs by Western blot analysis
[7] = Cytotoxicity against human MIAPaCa2 cells assessed as cell viability after 48 hrs by MTT assay; format: functional, cell-based; details: MIA PaCa-2, 48 h
MDA-MB-231 = assay: Cytotoxicity against human MDA-MB-231 cells assessed as cell viability after 48 hrs by MTT assay; format: functional, cell-based; details: MDA-MB-231, 48 h
HCT-116 [8] = assay: Induction of senescence in human HCT116 cells assessed as increase in p16 expression at 4 uM after 24 hrs by Western blot analysis; format: functional, cell-based
MCF7 [9] = assay: Cytotoxicity against human MCF7 cells assessed as cell viability after 48 hrs by MTT assay; format: functional, cell-based; details: MCF7, 48 h
A549 = assay: Cytotoxicity against human A549 cells assessed as cell viability after 48 hrs by MTT assay; format: functional, cell-based; details: A549, 48 h
MCF7 [10] = assay: Induction of senescence in human MCF7 cells assessed as increase in p16 expression at 4 uM after 24 hrs by Western blot analysis; format: functional, cell-based
MCF7 [11] = assay: Induction of senescence in human MCF7 cells assessed as decrease in SKP2 expression at 4 uM after 24 hrs by Western blot analysis; format: functional, cell-based
MCF7 [12] = assay: Induction of DNA damage in human MCF7 cells assessed as increase in TRF1 level measured at 4 uM after 24 hrs by Western blot analysis; format: functional, cell-based
MCF7 [13] = assay: Induction of senescence in human MCF7 cells assessed as increase in p21 expression at 4 uM after 24 hrs by Western blot analysis; format: functional, cell-based
[14] = Cytotoxicity against human MCF10A cells assessed as cell viability after 48 hrs by MTT assay; format: cell-based; details: MCF-10A
MCF7 [15] = assay: Induction of DNA damage in human MCF7 cells assessed as increase in gamma H2AX level measured at 4 uM after 24 hrs by Western blot analysis; format: functional, cell-based
COLO 205 = assay: Cytotoxicity against human COLO205 cells assessed as cell viability after 48 hrs by MTT assay; format: functional, cell-based; details: COLO 205, 48 h
MCF7 [16] = assay: Induction of senescence in human MCF7 cells assessed as increase in p53 expression at 4 uM after 24 hrs by Western blot analysis; format: functional, cell-based
SW116 = assay: Induction of senescence in human SW116 cells assessed as increase in p21 expression at 4 uM after 24 hrs by Western blot analysis; format: functional, cell-based
HCT-116 [17] = assay: Induction of senescence in human HCT116 cells assessed as increase in p21 expression at 4 uM after 24 hrs by Western blot analysis; format: functional, cell-based
MCF7 [18] = assay: Induction of DNA damage in human MCF7 cells assessed as increase in POT1 level measured at 4 uM after 24 hrs by Western blot analysis; format: functional, cell-based
[19] = target: Telomerase reverse transcriptase (Homo sapiens) (UniProt O14746); assay: Inhibition of telomerase activity in human MCF7 cells assessed as un-repairable DNA damage at 4 uM after 24 hrs; format: cell-based
Sequence of Telomerase reverse transcriptase (Homo sapiens) (O14746 whole entry): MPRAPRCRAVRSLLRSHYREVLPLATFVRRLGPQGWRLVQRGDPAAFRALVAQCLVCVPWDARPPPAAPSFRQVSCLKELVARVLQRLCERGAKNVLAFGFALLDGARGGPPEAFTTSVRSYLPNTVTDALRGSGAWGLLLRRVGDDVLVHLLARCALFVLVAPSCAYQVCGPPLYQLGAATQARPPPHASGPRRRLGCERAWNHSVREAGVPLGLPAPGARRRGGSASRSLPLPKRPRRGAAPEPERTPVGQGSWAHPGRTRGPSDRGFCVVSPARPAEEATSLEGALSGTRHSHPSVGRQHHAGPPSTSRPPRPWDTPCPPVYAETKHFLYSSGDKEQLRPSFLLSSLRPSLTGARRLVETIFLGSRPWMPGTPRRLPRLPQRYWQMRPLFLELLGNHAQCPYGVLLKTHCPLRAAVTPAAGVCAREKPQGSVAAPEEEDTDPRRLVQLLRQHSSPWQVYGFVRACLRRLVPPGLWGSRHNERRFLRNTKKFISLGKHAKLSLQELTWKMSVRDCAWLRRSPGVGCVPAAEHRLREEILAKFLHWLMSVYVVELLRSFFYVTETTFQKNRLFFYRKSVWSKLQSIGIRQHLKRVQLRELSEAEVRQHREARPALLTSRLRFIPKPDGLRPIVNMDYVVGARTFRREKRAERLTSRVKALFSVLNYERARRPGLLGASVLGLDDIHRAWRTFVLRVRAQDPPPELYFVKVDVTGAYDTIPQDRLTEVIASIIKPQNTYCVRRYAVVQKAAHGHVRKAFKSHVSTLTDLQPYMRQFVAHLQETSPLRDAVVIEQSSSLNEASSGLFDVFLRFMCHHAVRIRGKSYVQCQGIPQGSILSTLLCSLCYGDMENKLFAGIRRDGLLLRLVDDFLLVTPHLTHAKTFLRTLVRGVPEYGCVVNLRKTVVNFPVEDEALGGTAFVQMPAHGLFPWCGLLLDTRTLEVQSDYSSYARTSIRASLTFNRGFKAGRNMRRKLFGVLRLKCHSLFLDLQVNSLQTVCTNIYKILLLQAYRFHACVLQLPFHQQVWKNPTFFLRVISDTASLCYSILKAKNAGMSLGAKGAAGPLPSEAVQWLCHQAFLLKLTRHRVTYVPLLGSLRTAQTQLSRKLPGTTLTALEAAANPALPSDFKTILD

Row | Compound | Activity (MCF7 [1]) [%] | Activity (MCF7 [2]) [%] | OD (MCF7 [3]) | Activity (MCF7 [4]) [%] | OD (MCF7 [5]) | also measured
1 | Cc1ccccc1/C=C/c1nc2ccccc2c(=O)n1-c1ccc(C#Cc2ccccc2)cc1C | 6 | 6 | 0.51 | 88 | 0.78 | –
2 | Cc1cc(C#Cc2ccccc2)ccc1-n1c(/C=C/c2ccc(F)cc2)nc2ccccc2c1=O | 7 | 20 | 0.61 | 73 | 0.75 | –
3 | Cc1cc(C#Cc2ccc(C(C)(C)C)cc2)ccc1-n1c(/C=C/c2ccc(Cl)cc2)nc2ccccc2c1=O | – | – | 0.59 | – | 0.71 | –
4 | COc1ccc2cc(C#Cc3ccc(-n4c(/C=C/c5c(Cl)cccc5Cl)nc5ccccc5c4=O)c(C)c3)ccc2c1 | 8 | 24 | 0.63 | 68 | 0.77 | –
5 | Cc1cc(C#Cc2ccc(C(C)(C)C)cc2)ccc1-n1c(/C=C/c2ccc3c(c2)OCO3)nc2ccccc2c1=O | 10 | 23 | 0.52 | 67 | 0.67 | –
6 | COc1ccc2cc(C#Cc3ccc(-n4c(/C=C/c5ccc([N+](=O)[O-])o5)nc5ccccc5c4=O)c(C)c3)ccc2c1 | 12 | 39 | 0.58 | 49 | 0.66 | –
7 | Cc1cc(C#Cc2ccccc2)ccc1-n1c(/C=C/c2ccc(Cl)cc2)nc2ccccc2c1=O | 7 | 18 | 0.48 | 75 | 0.74 | –
8 | Cc1cc(C#Cc2ccc(C(C)(C)C)cc2)ccc1-n1c(/C=C/c2ccc([N+](=O)[O-])o2)nc2ccccc2c1=O | 6 | 17 | 0.4 | 77 | 0.7 | –
9 | COc1cc(/C=C/c2nc3ccccc3c(=O)n2-c2ccc(C#Cc3ccc(C(C)(C)C)cc3)cc2C)cc(OC)c1OC | 8 | 78 | 0.55 | 14 | 0.74 | –
10 | COc1cc(/C=C/c2nc3ccccc3c(=O)n2-c2ccc(C#Cc3ccccc3)cc2C)cc(OC)c1OC | 5 | 5 | 0.27 | 90 | 0.47 | inhibition (MCF7 [6]): Active; Activity (MCF7 (Homo sapiens)): Active; IC50 [7]: 6.01 µM; IC50 (MDA-MB-231): 5.56 µM; Activity (HCT-116 [8]): Active; IC50 (MCF7 [9]): 2.46 µM; IC50 (A549): 6.54 µM; Activity (MCF7 [10]): Active; inhibition (MCF7 [11]): Active; Activity (MCF7 [12]): Active; Activity (MCF7 [13]): Active; IC50 [14]: 8 µM; Activity (MCF7 [15]): Active; IC50 (COLO 205): 6.24 µM; Activity (MCF7 [16]): Active; Activity (SW116): Active; Activity (HCT-116 [17]): Active; Activity (MCF7 [18]): Active; inhibition [19]: Active
11 | Cc1cc(C#Cc2ccccc2)ccc1-n1c(/C=C/c2ccc([N+](=O)[O-])o2)nc2ccccc2c1=O | – | – | 0.37 | – | 0.88 | –
12 | Cc1cc(C#Cc2ccc(C(C)(C)C)cc2)ccc1-n1c(/C=C/c2ccc([N+](=O)[O-])s2)nc2ccccc2c1=O | 8 | 24 | 0.25 | 68 | 0.54 | –
13 | Cc1cc(C#Cc2ccc(C(C)(C)C)cc2)ccc1-n1c(/C=C/c2cc(O)cc(O)c2)nc2ccccc2c1=O | 8 | 18 | 0.43 | 74 | 0.6 | –
14 | COc1ccc2cc(C#Cc3ccc(-n4c(/C=C/c5ccnc6ccccc56)nc5ccccc5c4=O)c(C)c3)ccc2c1 | 7 | 19 | 0.5 | 74 | 0.76 | –
15 | Cc1cc(C#Cc2ccc(C(C)(C)C)cc2)ccc1-n1c(/C=C/c2ccc(O)cc2)nc2ccccc2c1=O | 7 | 19 | 0.52 | 74 | 0.71 | –
16 | COc1ccc2cc(C#Cc3ccc(-n4c(/C=C/c5ccc(F)cc5)nc5ccccc5c4=O)c(C)c3)ccc2c1 | 8 | 18 | 0.57 | 74 | 0.67 | –
17 | COc1ccc2cc(C#Cc3ccc(-n4c(/C=C/c5ccc(OC)c(OC)c5)nc5ccccc5c4=O)c(C)c3)ccc2c1 | 7 | 23 | 0.6 | 70 | 0.7 | –
18 | COc1ccc(/C=C/c2nc3ccccc3c(=O)n2-c2ccc(C#Cc3ccccc3)cc2C)cc1 | 7 | 15 | 0.73 | 78 | 0.84 | –
19 | COc1ccc2cc(C#Cc3ccc(-n4c(/C=C/c5ccc6ccccc6c5)nc5ccccc5c4=O)c(C)c3)ccc2c1 | 9 | 22 | 0.46 | 69 | 0.81 | –
20 | Cc1cc(C#Cc2ccccc2)ccc1-n1c(/C=C/c2ccc(O)cc2)nc2ccccc2c1=O | 7 | 18 | 0.58 | 75 | 0.87 | –
21 | COc1cc(/C=C/c2nc3ccccc3c(=O)n2-c2ccc(C#Cc3ccccc3)cc2C)cc(OC)c1 | 8 | 19 | 0.61 | 73 | 0.93 | –
22 | Cc1cc(C#Cc2ccccc2)ccc1-n1c(/C=C/c2ccc(O)c([N+](=O)[O-])c2)nc2ccccc2c1=O | 7 | 20 | 0.51 | 73 | 0.9 | –
23 | COc1ccc2cc(C#Cc3ccc(-n4c(/C=C/c5cc(OC)c(OC)c(OC)c5)nc5ccccc5c4=O)c(C)c3)ccc2c1 | 7 | 21 | 0.58 | 72 | 0.57 | –
24 | COc1ccc(/C=C/c2nc3ccccc3c(=O)n2-c2ccc(C#Cc3ccc(C(C)(C)C)cc3)cc2C)cc1OC | 3 | 6 | 0.27 | 91 | 0.41 | inhibition (MCF7 [6]): Active; Activity (MCF7 (Homo sapiens)): Active; IC50 [7]: 5.89 µM; IC50 (MDA-MB-231): 5.84 µM; Activity (HCT-116 [8]): Active; IC50 (MCF7 [9]): 2.72 µM; IC50 (A549): 6.15 µM; Activity (MCF7 [10]): Active; inhibition (MCF7 [11]): Active; Activity (MCF7 [12]): Active; Activity (MCF7 [13]): Active; IC50 [14]: 13 µM; Activity (MCF7 [15]): Active; IC50 (COLO 205): 5.68 µM; Activity (MCF7 [16]): Active; Activity (SW116): Active; Activity (HCT-116 [17]): Active; Activity (MCF7 [18]): Active; inhibition [19]: Active
25 | Cc1cc(C#Cc2ccccc2)ccc1-n1c(/C=C/c2ccc3ccccc3c2)nc2ccccc2c1=O | 8 | 24 | 0.43 | 68 | 0.97 | –
26 | Cc1cc(C#Cc2ccccc2)ccc1-n1c(/C=C/c2cc(O)cc(O)c2)nc2ccccc2c1=O | 7 | 10 | 0.73 | 83 | 0.92 | –
27 | Cc1cc(C#Cc2ccc(C(C)(C)C)cc2)ccc1-n1c(/C=C/c2ccc3ccccc3c2)nc2ccccc2c1=O | 8 | 20 | 0.61 | 72 | 0.92 | –
